The text below walks through data of patent US11351221B2, “SMAC mimetic” (Medivir AB, priority 2009, dated 2022).

The format of data set [1] is in vivo. The settings on record: rat. The text has this: Body weight loss (BWL), mortality and additional toxicity data were generated substantially as follows. […] Body weights were taken on day 4 and are shown as percent change from day 1.
Another data set deals with T1, cIAP-2 (Homo sapiens, UniProt Q13489).
T1 construct: expressed in transfected cells; host or cells: A375 (A375Gc2)
T1 sequence (Q13489 whole entry, species assumed): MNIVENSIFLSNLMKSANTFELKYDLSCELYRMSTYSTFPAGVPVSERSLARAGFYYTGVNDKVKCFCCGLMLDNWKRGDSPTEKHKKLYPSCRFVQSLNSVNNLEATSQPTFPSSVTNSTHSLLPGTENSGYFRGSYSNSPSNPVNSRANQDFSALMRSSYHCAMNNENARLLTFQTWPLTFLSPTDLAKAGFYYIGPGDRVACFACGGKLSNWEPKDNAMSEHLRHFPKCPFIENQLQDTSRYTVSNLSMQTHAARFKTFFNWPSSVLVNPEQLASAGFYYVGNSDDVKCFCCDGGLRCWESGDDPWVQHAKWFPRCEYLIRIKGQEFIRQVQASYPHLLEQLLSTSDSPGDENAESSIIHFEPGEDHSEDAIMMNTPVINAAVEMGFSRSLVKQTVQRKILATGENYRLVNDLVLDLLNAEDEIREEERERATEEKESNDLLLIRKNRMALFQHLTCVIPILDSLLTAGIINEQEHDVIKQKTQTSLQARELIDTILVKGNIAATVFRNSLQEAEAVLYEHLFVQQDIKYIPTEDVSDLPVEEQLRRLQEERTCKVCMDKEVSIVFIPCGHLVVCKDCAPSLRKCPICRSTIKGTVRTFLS
Briefly: cIAP degradation assay (GFP-cIAP-2). It is filed as cell-based. The settings on record: A375Gc2 cells, 2 h treatment, 50% of GFP signal inhibited (FACS); read-out: GFP-cIAP-2 IC50. The procedure:
(§1) The concentration inducing degradation of cIAP-1 and cIAP-2 by 50% (IC50) for various compounds was determined by monitoring the disappearance of Green Fluorescent Protein (GFP)-signal in A375 cells. Briefly, A375 cell lines expressing GFP-tagged cIAP-1 and cIAP-2 were generated by transfecting HA2xEGFP-pcDNA3 vector containing either cIAP-1 (A375Gc1) or cIAP-2 (A375Gc2) coding region. 2×10^4 of A375Gc1 or A375Gc2 cells were grown in 96-well plate and treated with various concentrations of test compounds for 2 h. After incubation, cells were collected by trypsinization and suspended in 150 μl of DMEM-10% FBS. A total of 10^4 cells were analyzed using a FACScan (Becton Dickinson). GFP fluorescence was monitored by using an excitation filter at 488 nm and emission was measured with a 530 nm filter. IC50 is defined as the concentration of drug at which 50% of GFP signal was inhibited.

Data set [2] has as its system MDA-MB-231 human breast tumor cells. Briefly: MDA-MB-231 xenograft tumor growth delay. Format: in vivo, female nude mice. The settings on record: 15 mg/Kg i.p., q3dx5. The procedure:
MDA-MB-231 xenograft data were generated substantially as follows. MDA-MB-231 human breast tumor cells were injected into the mammary fat pad of female nude mice and dosing initiated twelve days later at an average tumor volume of approximately 148 mm^3. No tumor burden was associated with this model based on lack of weight loss or animal morbidity in control groups. Mice were injected subcutaneously into the mammary fat pad with 1×10^7 cells suspended in 200 μl of a 1:1 HBSS: Matrigel solution; injected cells were within nine passages of the original lot. Pre-study tumor volumes were recorded beginning approximately one week prior to the estimated start date. When tumors reached approximately 150 mm^3 animals are matched by tumor volume into treatment and control groups and dosing initiated (Day 0); mice are tagged and followed individually throughout the experiment. Animals were dosed by weight (0.01 mL per gram; 10 ml/Kg).
Beginning on Day 0, animals were observed daily and weighed twice weekly using a digital scale (Ohaus SP601); data including individual and mean gram weights (Mean We±SD), mean percent weight change versus Day 0 (% vD0) and mean percent weight change versus prior measurement (% vD−x) were recorded for each group and plotted at study completion.
Beginning on Day 0, tumor dimensions were measured twice weekly by digital caliper (Fowler Ultra-Cal IV) and data including individual and mean estimated tumor volumes (Mean TV±SEM) recorded for each group; tumor volume was calculated using the formula: TV=width^2×length×0.52. Individual mice reaching the designated study endpoint (an estimated tumor volume of approximately 1 cm^3) were assigned a time to endpoint (TTE) value corresponding to that day; the tumor growth delay (TGD) study was concluded once all mice reach the study endpoint or sixty days following study initiation. At study completion, TGD and % TGD are calculated using the median TTE (MTTE) value for each treatment (T) group versus control (C) by the formulas: TGD(days)=T−C and % TGD=T−C/C×100, wherein T−C is the difference between MTTE-Treatment Group and MTTE-Control. Tumored animals not reaching the designated volume endpoint by study completion are considered long-term survivors (LTS) and assigned a TTE value corresponding to the final study day; tumor-free animals are not included in TGD calculations. A Log-rank test is used to determine statistically significant differences in overall survival experience between each treated group compared to control. Individual mice reporting a tumor volume ≤50% of the Day 0 measurement for two consecutive measurements over a seven day period were considered partial responders (PR). If the PR persisted until study completion, percent tumor regression (% TR) was determined using the formula: % TR=1−Tf/Ti×100; a mean value was calculated if multiple PR mice occurred in one group. Individual mice lacking palpable tumors (<4×4 mm^2 for two consecutive measurements over a seven day period) were classified as complete responders (CR); a CR that persisted until study completion was considered a tumor-free survivor (TFS); TFS animals are excluded from TGD calculations and statistical analysis. Statistical differences in MTTE values between control and treatment groups are compared using a Log Rank test.

The target in another data set is T2, cIAP-1 (Homo sapiens, UniProt Q13490).
T2 construct: expressed in transfected cells; host or cells: A375 (A375Gc1)
T2 sequence (Q13490 whole entry, species assumed): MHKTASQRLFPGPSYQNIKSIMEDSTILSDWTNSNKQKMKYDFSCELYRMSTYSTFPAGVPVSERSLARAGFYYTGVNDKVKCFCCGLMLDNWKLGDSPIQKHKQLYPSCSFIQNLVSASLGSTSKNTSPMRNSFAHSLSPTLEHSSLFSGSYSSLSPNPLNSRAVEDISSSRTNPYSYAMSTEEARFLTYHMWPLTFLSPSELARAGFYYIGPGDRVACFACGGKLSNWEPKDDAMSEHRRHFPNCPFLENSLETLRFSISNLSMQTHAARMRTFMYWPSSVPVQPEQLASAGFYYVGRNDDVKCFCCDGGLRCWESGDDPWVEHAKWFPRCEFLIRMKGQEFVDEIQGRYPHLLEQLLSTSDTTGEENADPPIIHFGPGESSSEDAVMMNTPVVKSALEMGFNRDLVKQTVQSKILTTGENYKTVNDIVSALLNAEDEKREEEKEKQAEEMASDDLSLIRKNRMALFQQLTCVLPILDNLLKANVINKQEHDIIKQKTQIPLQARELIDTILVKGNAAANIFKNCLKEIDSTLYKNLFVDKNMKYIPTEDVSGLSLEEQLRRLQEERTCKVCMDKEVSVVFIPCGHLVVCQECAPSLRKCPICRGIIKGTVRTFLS
Briefly: cIAP degradation assay (GFP-cIAP-1). Format: cell-based. The protocol: as §1, with “Briefly,” for “The concentration inducing degradation of cIAP-1 and cIAP-2 by 50% (IC50) for various compounds was determined by monitoring the disappearance of Green Fluorescent Protein (GFP)-signal in A375 cells. Briefly,”, “filter.” for “filter. IC50 is defined as the concentration of drug at which 50% of GFP signal was inhibited.”

As to `CN[C@@H](C)C(=O)N[C@H](C(=O)N1C[C@@H](O)C[C@H]1Cc1c(-c2[nH]c3cc(F)ccc3c2C[C@@H]2C[C@H](O)CN2C(=O)[C@@H](NC(=O)[C@H](C)NC)[C@@H](C)OC)[nH]c2cc(F)ccc12)[C@@H](C)OC` [Compound 5], in data set [1] (3 mg/Kg, QDx4 i.v. bolus), the Mortality result was “caused the animals to die”. Further, the Additional clinical observations result in data set [1] (in vivo, 1 mg/kg) was “dehydration, ungroomed appearance, chromorhinorrhea, alopecia (head), and excessive scratching”. For the same compound, in data set [1] (in vivo, 1 mg/kg/day), the “Bone marrow hypocellularity of the erythroid series (anatomic pathology)” value is recorded as “marked to severe”; the “Hypercellularity of the myeloid series (anatomic pathology)” value is given as “mild to moderate”; the “Hypertrophy and hyperplasia of megakaryocytes (anatomic pathology)” value is listed as “mild to moderate”; the “Type 2 pneumocyte hypertrophy/hyperplasia in the lungs (anatomic pathology)” value is “mild to moderate”. Besides, the Clinical signs result in data set [1] (in vivo, iv, 1 mg/kg/day) was “lethargy, increased/irregular respiration and increased heart rate”. The DC50 at cIAP-2 was determined as 37 nM. In data set [2], the Long-term survivors is 3/10, the Partial tumor regression entry is listed as “five” and the “T−C value (tumor growth delay)” value worked out at 21 days. In addition, the “Weight loss compared to mice dosed with Compound 15 at 20 mg/Kg” value in data set [2] (nude mice) is “greater”. On cIAP-1 (A375Gc1 cells, 2 h treatment, 50% of GFP signal inhibited (FACS), read-out: GFP-cIAP-1 IC50), the DC50 stood at 10 nM. Further, the “IC50 Ratio cIAP-2/cIAP-1” value on cIAP-1 (ratio of GFP-cIAP-2 to GFP-cIAP-1 degradation IC50) stood at 3.7.
